Earlier results, collected in patent US20170202917A1, “PHARMACEUTICAL COMPOSITION FOR PREVENTING OR TREATING SKIN RASH” (DAEWOONG PHARMACEUTICAL CO., LTD., priority 2014, published 2017).

Assays:
skin rashes = details: prophylactic treatment

time to development of rash after starting treatment (rash above the waist) | Compound | overall incidence of erlotinib-related skin effects (ERSEs) (NSCLC and PC clinical trials) | incidence of grade 3-4 ERSEs (NSCLC and PC clinical trials, of the patients) | improvement in skin rashes compared with placebo (skin rashes)
7 to 10 days | C#Cc1cccc(Nc2ncnc3cc(OCCOC)c(OCCOC)cc23)c1 [erlotinib] | 75% | about 10% | –
– | CN(C)[C@@H]1C(O)=C(C(N)=O)C(=O)[C@@]2(O)C(O)=C3C(=O)c4c(O)cccc4[C@@](C)(O)[C@H]3C[C@@H]12 [tetracycline] | – | – | 30%
